This is an account of results in patent publication US12643887B2, “Heterocyclic derivatives with cardiomyocyte proliferation activity for treatment of heart diseases” (Tongji University, priority 2019, dated 2026).

Holding throughout (format): biochemical
One assay concerns the target T1, human HIPK1 (Homo sapiens, UniProt Q86Z02).
T1 construct: Recombinant human HIPK1 (156-555); GST (N); purchased SignalChem H03-11G; host or cells: Sf9 insect cells
Put plainly: HIPK1 enzyme assay (ADP-Glo). The settings on record: ADP-Glo, ATP 5 μM; read-out: HIPK1 IC50. The protocol:
The ability of compounds to inhibit human HIPK1 kinase activities was determined using a commercially available ADP-Glo™ Kinase Assay kit (Promega, Cat #V9102) according to the manufacturer's protocol.
(§1) Recombinant human HIPK1 (156-555) (expressed in Sf9 insect cells with an N-terminal GST tag) was purchased from SignalChem (Cat #H03-11G). Recombinant full length human MBP (expressed in E. Coli cells with an N-terminal GST tag) was purchased from SignalChem (Cat #M42-54G). This assay, run in a 384-well plate format, is a generic method for measuring kinase activities using an ADP-Glo Kinase Assay Kit. The basic assay procedure involves two steps: (1) Enzymatic step: inhibitors are incubated with the kinase and then ATP (included in the ADP-Glo Kinase Assay Kit) and the MBP protein are added to start the enzymatic reaction; (2) Detection step: after the kinase reaction, first ADP-Glo™ Reagent is added to terminate the kinase reaction and deplete the remaining ATP. Second, the Kinase Detection Reagent is added to simultaneously convert ADP to ATP and allow the newly synthesized ATP to be measured using a luciferase/luciferin reaction. The light generated is measured using a luminometer.
Briefly, HIPK1 (4 nM) in the enzymatic buffer solutions (40 mM Tris, pH 7.5, 20 mM MgCl2, 0.1 mg/ml BSA, 50 μM DTT) were mixed with various concentrations of inhibitors (dissolved in 100% DMSO). These solutions were incubated for 30 minutes at 25° C., and subsequently a mixture of substrate peptide and ATP was added with the final peptide and ATP concentrations at 0.05 mg/ml and 5 μM, respectively. The final reaction mixture of enzyme-substrate-ATP-compound was incubated for 90 minutes at 25° C.
(§2) Afterwards ADP-Glo™ Reagent was added and the mixture was incubated at 25° C. for 60 minutes. Then Kinase Detection Reagent was added, and the final mixture was incubated at 25° C. for 60 minutes. The luminescence signal of the final solution was measured on an Envision instrument (PerkinElmer). The percent (%) inhibition at each concentration of a compound is calculated relative to the luminescence signal in the Max and Min control wells contained within each assay plate. […] The concentrations and percent inhibition values for a test compound are plotted and the concentration of the compound required to achieve 50% inhibition (IC50) is determined with a four-parameter logistic dose response equation.
Background: In ADP-Glo the light output rises with the ADP produced.

A further assay deals with T2, human HIPK2 (Homo sapiens, UniProt Q9H2X6).
T2 construct: Recombinant human HIPK2 (1-640); GST (N); purchased SignalChem H04-11BG; host or cells: Sf9 insect cells
Description: HIPK2 enzyme assay (ADP-Glo). The settings on record: ADP-Glo, ATP 5 μM; read-out: HIPK2 IC50. As for the experimental part: The ability of compounds to inhibit human HIPK2 kinase activities was determined using a commercially available ADP-Glo™ Kinase Assay kit (Promega, Cat #V9102) according to the manufacturer's protocol.
as §1, with “HIPK2 (1-640)” for “HIPK1 (156-555)”, “#H04-11BG).” for “#H03-11G).”
Briefly, HIPK2 (1 nM) in the enzymatic buffer solutions (40 mM Tris, pH 7.5, 20 mM MgCl2, 0.1 mg/ml BSA, 50 μM DTT) were mixed with various concentrations of inhibitors (dissolved in 100% DMSO). These solutions were incubated for 30 minutes at 25° C., and subsequently a mixture of substrate peptide and ATP was added with the final peptide and ATP concentrations at 0.05 mg/ml and 5 μM, respectively. The final reaction mixture of enzyme-substrate-ATP-compound was incubated for 90 minutes at 25° C.
as §2

A further assay concerns the target T3, human DYRK1A (Homo sapiens, UniProt Q13627).
T3 construct: Recombinant full-length DYRK1A (expressed in E. Coli cells with an N-terminal GST tag); GST (N); purchased SignalChem D09-10G; host or cells: E. coli
Put plainly: DYRK1A enzyme assay (ADP-Glo). Conditions: ADP-Glo, ATP 60 μM; read-out: DYRK1A IC50. As for the experimental part:
The ability of compounds to inhibit human DYRK1A kinase activities was determined using a commercially available ADP-Glo™ Kinase Assay kit (Promega, Cat #V9102) according to the manufacturer's protocol.
as §1, with “full-length DYRK1A” for “human HIPK1 (156-555) (expressed in Sf9 insect cells with an N-terminal GST tag) was purchased from SignalChem (Cat #H03-11G). Recombinant full length human MBP”, “#D09-10G). The DYRK substrate peptide (DYRKtide, sequence: […]) was purchased from SignalChem (Cat #D96-58).” for “#M42-54G).”, “DYRKtide” for “MBP protein”
Briefly, DYRK1A (3 nM) in the enzymatic buffer solutions (40 mM Tris, pH 7.5, 20 mM MgCl2, 0.1 mg/ml BSA, 50 μM DTT) were mixed with various concentrations of inhibitors (dissolved in 100% DMSO). These solutions were incubated for 30 minutes at 25° C., and subsequently a mixture of substrate peptide and ATP was added with the final peptide and ATP concentrations at 20 μM and 60 μM, respectively. The final reaction mixture of enzyme-substrate-ATP-compound was incubated for 60 minutes at 25° C.
as §2, with “added” for “added,”

SMILES strings stand for the structures.

T1 sequence (Q86Z02 156-555): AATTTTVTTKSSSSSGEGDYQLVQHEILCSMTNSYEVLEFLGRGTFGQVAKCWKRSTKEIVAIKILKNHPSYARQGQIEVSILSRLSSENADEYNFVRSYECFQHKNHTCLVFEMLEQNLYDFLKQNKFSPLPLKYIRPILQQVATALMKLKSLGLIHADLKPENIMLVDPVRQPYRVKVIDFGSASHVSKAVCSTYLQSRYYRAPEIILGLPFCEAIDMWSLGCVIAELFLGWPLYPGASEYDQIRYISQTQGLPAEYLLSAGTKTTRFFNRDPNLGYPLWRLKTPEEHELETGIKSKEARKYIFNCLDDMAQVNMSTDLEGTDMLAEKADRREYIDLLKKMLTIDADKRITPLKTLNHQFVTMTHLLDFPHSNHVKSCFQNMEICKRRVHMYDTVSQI
T2 sequence (Q9H2X6 1-640): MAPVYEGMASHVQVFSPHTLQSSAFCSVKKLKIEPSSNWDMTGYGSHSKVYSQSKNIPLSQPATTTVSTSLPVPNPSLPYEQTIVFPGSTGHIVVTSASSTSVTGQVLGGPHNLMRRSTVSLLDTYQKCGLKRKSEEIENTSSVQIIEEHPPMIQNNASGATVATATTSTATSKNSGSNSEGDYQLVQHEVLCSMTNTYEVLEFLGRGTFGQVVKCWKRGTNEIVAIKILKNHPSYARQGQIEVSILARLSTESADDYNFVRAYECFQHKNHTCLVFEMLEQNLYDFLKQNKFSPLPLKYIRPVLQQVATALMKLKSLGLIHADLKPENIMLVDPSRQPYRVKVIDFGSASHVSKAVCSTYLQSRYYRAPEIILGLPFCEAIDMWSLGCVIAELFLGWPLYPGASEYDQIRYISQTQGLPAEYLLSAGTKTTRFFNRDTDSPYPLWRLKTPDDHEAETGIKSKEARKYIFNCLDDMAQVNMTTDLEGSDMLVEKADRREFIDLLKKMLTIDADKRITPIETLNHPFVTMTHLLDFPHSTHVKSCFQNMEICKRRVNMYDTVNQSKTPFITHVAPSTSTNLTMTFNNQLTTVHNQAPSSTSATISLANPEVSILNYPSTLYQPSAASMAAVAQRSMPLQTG

`O=C1NC(NCc2ccccc2)=N/C1=C\c1ccc2ncsc2c1` [Example 31, (Z)-5-(benzo[d]thiazol-6-ylmethylene)-2-(benzylamino)-3,5-dihydro-4H-imidazol-4-one]: the IC50 on human HIPK1 and on human HIPK2 was 0.1 to 1 µM throughout.
As for `COc1ccc(N(C)C2=N/C(=C\c3ccc4ncsc4c3)C(=O)N2)cc1` [Example 38, (Z)-5-(benzo[d]thiazol-6-ylmethylene)-2-((4-methoxyphenyl)(methyl)amino)-3,5-dihydro-4H-imidazol-4-one], the values for the half-maximal inhibitory concentration (IC50) on human DYRK1A, on human HIPK1 and on human HIPK2 were 0.1 to 1 µM, 1 to 10 µM and 1 to 10 µM, respectively.
On to `O=C1NC(Nc2ccc3ncsc3c2)=N/C1=C\c1ccc2cc[nH]c2c1` [Example 63, (Z)-5-((1H-indol-6-yl)methylene)-2-(benzo[d]thiazol-6-ylamino)-3,5-dihydro-4H-imidazol-4-one], for which the IC50 at human DYRK1A, on human HIPK1 and at human HIPK2 was greater than 10 µM each time.
`Cn1ncc2ccc(/C=C3\N=C(Nc4ccc5ncsc5c4)NC3=O)cc21` [Example 80, (Z)-2-(benzo[d]thiazol-6-ylamino)-5-((1-methyl-1H-indazol-6-yl)methylene)-3,5-dihydro-4H-imidazol-4-one]: the IC50 at human DYRK1A, on human HIPK1 and at human HIPK2 was greater than 10 µM each time.
On to `CN(CC1CC1)C1=N/C(=C\c2ccc3ncsc3c2)C(=O)N1` [Example 33, (Z)-5-(benzo[d]thiazol-6-ylmethylene)-2-((cyclopropylmethyl)(methyl)amino)-3,5-dihydro-4H-imidazol-4-one], for which the IC50 (commonly the midpoint of a concentration-inhibition curve) was 1 to 10 µM at human DYRK1A, greater than 10 µM at human HIPK1 and 1 to 10 µM at human HIPK2.
For `O=C1NC(NCCN2CCOCC2)=N/C1=C\c1ccc2ncsc2c1` [Example 29, (Z)-5-(benzo[d]thiazol-6-ylmethylene)-2-((2-morpholinoethyl)amino)-3,5-dihydro-4H-imidazol-4-one], the results for the IC50 on human DYRK1A, on human HIPK1 and at human HIPK2 were 0.1 to 1 µM, 1 to 10 µM and 1 to 10 µM, respectively.
In the case of `CN(C1=N/C(=C\c2ccc3ncsc3c2)C(=O)N1)c1ccc(Cl)cc1` [Example 24, (Z)-5-(benzo[d]thiazol-6-ylmethylene)-2-((4-chlorophenyl)(methyl)amino)-3,5-dihydro-4H-imidazol-4-one], the IC50 at human DYRK1A is 0.1 to 1 µM; on human HIPK1, greater than 10 µM; at human HIPK2, 0.1 to 1 µM.
In the case of `CC(C)NC1=N/C(=C\c2ccc3ncsc3c2)C(=O)N1C` [Example 45, (Z)-5-(benzo[d]thiazol-6-ylmethylene)-2-(isopropylamino)-3-methyl-3,5-dihydro-4H-imidazol-4-one], the IC50 at human DYRK1A was 0.1 to 1 µM; at human HIPK1, 1 to 10 µM; at human HIPK2 it was 1 to 10 µM.
For `Cn1cnc2cc(/C=C3\N=C(Nc4ccccc4)NC3=O)ccc21` [Example 71, (Z)-5-((1-methyl-1H-benzo[d]imidazol-5-yl)methylene)-2-(phenylamino)-3,5-dihydro-4H-imidazol-4-one], the IC50 at human DYRK1A, on human HIPK1 and at human HIPK2 was greater than 10 µM each time.
With `O=C1NC(Nc2ccc(Cl)cc2)=N/C1=C\c1ccc2ncsc2c1` [Example 40, (Z)-5-(benzo[d]thiazol-6-ylmethylene)-2-((4-chlorophenyl)amino)-3,5-dihydro-4H-imidazol-4-one], the IC50 on human HIPK1 and at human HIPK2 was 1 to 10 µM throughout.
For `COc1ccc(NC2=N/C(=C\c3ccc4ncsc4c3)C(=O)N2)cc1` [Example 25, (Z)-5-(benzo[d]thiazol-6-ylmethylene)-2-((4-methoxyphenyl)amino)-3,5-dihydro-4H-imidazol-4-one], the IC50 at human HIPK1 and at human HIPK2 was 0.1 to 1 µM in each case.
For the compound `O=C1NC(Nc2ccc3ncsc3c2)=N/C1=C\c1ccc2scnc2c1` [Example 57, (Z)-5-(benzo[d]thiazol-5-ylmethylene)-2-(benzo[d]thiazol-6-ylamino)-3,5-dihydro-4H-imidazol-4-one], the IC50 is less than 0.1 µM on human HIPK1 and 0.1 to 1 µM at human HIPK2.
The like results for `O=C1NC(Nc2ccccc2)=N/C1=C\c1ccc2ncsc2c1` [Example 6, (Z)-5-(benzo[d]thiazol-6-ylmethylene)-2-(phenylamino)-3,5-dihydro-4H-imidazol-4-one] were, in that order, 0.1 to 1 µM and 0.1 to 1 µM.
For the compound `O=C1NC(Nc2ccc3ncsc3c2)=N/C1=C\c1ccc2ncsc2c1` [Example 48, (Z)-2-(benzo[d]thiazol-6-ylamino)-5-(benzo[d]thiazol-6-ylmethylene)-3,5-dihydro-4H-imidazol-4-one], the IC50 on human HIPK1 was 0.1 to 1 µM; on human HIPK2, less than 0.1 µM.
The like results for `O=C1NC(Nc2ccc3nccnc3c2)=N/C1=C\c1ccc2ncsc2c1` [Example 82, (Z)-5-(benzo[d]thiazol-6-ylmethylene)-2-(quinoxalin-6-ylamino)-3,5-dihydro-4H-imidazol-4-one] were, in that order, greater than 10 µM and 0.1 to 1 µM.
Consider `O=C1NC(NCC2CC2)=N/C1=C\c1ccc2ncsc2c1` [Example 34, (Z)-5-(benzo[d]thiazol-6-ylmethylene)-2-((cyclopropylmethyl)amino)-3,5-dihydro-4H-imidazol-4-one], for which the IC50 at human HIPK1 and on human HIPK2 was 1 to 10 µM throughout.
